These results are taken from PubChem BioAssay (NCI).

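Method: 48-hour compound exposure of cells in 96-well plates, five concentrations, linear interpolation of endpoints. GI50 is the concentration that inhibits growth by half. Definition used: TGI = concentration required for complete inhibition of growth.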

Test systems include SF-539 CNS; SK-MEL-5 melanoma; NCI-H522 lung; ACHN renal; CCRF-CEM leukemia; HOP-92 NSCLC; KM12 colon; A549 NSCLC; SN12C renal; K-562 leukemia.
Test in all cases: DTP human tumour cell line panel, 48 h

The TGI is the concentration at which net growth stops. Higher therefore signals lower sensitivity of the cells. `COc1cc(CCc2ccncc2)cc(OC)c1OC`: the concentration for total growth inhibition (TGI) with SF-539 CNS, in the experiment on SK-MEL-5 melanoma, in the experiment on NCI-H522 lung, in the experiment on ACHN renal, with CCRF-CEM leukemia and with HOP-92 NSCLC was greater than 100 µM each time. The TGI in the experiment on KM12 colon, in the experiment on A549 NSCLC, in the experiment on SN12C renal and in the experiment with K-562 leukemia was greater than 100 µM each time.
Take `CC1=CC(=O)N2C(OC[C@@H]2c2ccccc2)O1` (stereo not given in full): the TGI in the experiment on SF-539 CNS, with SK-MEL-5 melanoma, in the experiment on NCI-H522 lung, in the experiment with ACHN renal, with CCRF-CEM leukemia and in the experiment on HOP-92 NSCLC was greater than 100 µM in each case. The TGI in the experiment with KM12 colon, in the experiment on A549 NSCLC, with SN12C renal and with K-562 leukemia was greater than 100 µM in each case.
Regarding `Cc1c(Cl)cccc1NC(=O)C(=O)c1c(O)c2ccc(O)cc2oc1=O`, the TGI in the experiment with SF-539 CNS, with SK-MEL-5 melanoma, in the experiment on NCI-H522 lung, with ACHN renal, with CCRF-CEM leukemia and in the experiment with HOP-92 NSCLC was greater than 100 µM each time. Also, the total growth inhibition concentration (TGI) in the experiment on KM12 colon, in the experiment on A549 NSCLC, in the experiment on SN12C renal and in the experiment on K-562 leukemia was greater than 100 µM each time.
Turning to `CC(CC(=O)Nc1ccc(NC(=O)CC(C)N=NC(N)=O)cc1)N=NC(N)=O` (stereo not given), the TGI in the experiment on SF-539 CNS, with SK-MEL-5 melanoma, with NCI-H522 lung, with ACHN renal, with CCRF-CEM leukemia and in the experiment on HOP-92 NSCLC was greater than 100 µM throughout. The TGI in the experiment with KM12 colon, with A549 NSCLC, with SN12C renal and in the experiment with K-562 leukemia was greater than 100 µM each time.
As to `Oc1ccc(O)c(-n2cccn2)c1-n1cccn1`, the TGI was greater than 100 µM in the experiment on SF-539 CNS; greater than 100 µM with SK-MEL-5 melanoma; 73.1 µM in the experiment with NCI-H522 lung; greater than 100 µM in the experiment with ACHN renal; greater than 10 µM in the experiment with CCRF-CEM leukemia; greater than 100 µM in the experiment on HOP-92 NSCLC. Moreover, the concentration for total growth inhibition (TGI) with KM12 colon, in the experiment with A549 NSCLC, in the experiment on SN12C renal and in the experiment with K-562 leukemia was greater than 100 µM throughout.
As usually defined, the GI50 is the concentration at which growth is held to half of that of the control. As for `C[C@@H](C[C@H](CCO)c1ccccc1)c1ccc2ccccc2c1`, the GI50 is 1.68 µM in the experiment on SF-539 CNS; 1.57 µM with SK-MEL-5 melanoma; 1.33 µM in the experiment with NCI-H522 lung; 1.65 µM in the experiment on ACHN renal; 0.364 µM with CCRF-CEM leukemia; 1.39 µM in the experiment on HOP-92 NSCLC. The GI50 in the experiment with KM12 colon is 1.4 µM; in the experiment with A549 NSCLC, 1.71 µM; in the experiment on SN12C renal, 1.69 µM; with K-562 leukemia, 1.63 µM. Besides, the concentration for total growth inhibition (TGI) in the experiment with SF-539 CNS was found to be 3.11 µM; in the experiment on SK-MEL-5 melanoma, 2.91 µM; in the experiment with NCI-H522 lung, 2.78 µM; in the experiment with ACHN renal it was 3.01 µM; with CCRF-CEM leukemia, 1.51 µM; in the experiment on HOP-92 NSCLC, 2.77 µM. Moreover, the TGI with KM12 colon came out at 2.83 µM; with A549 NSCLC, 3.14 µM; in the experiment with SN12C renal, 3.22 µM; in the experiment on K-562 leukemia it was 3.82 µM.
For `CC(C)OP(=O)(OC(C)C)/C(C#N)=C/c1c[nH]c2ccccc12`, the TGI in the experiment with SF-539 CNS, with SK-MEL-5 melanoma, in the experiment on NCI-H522 lung, in the experiment with ACHN renal, in the experiment with CCRF-CEM leukemia and in the experiment on HOP-92 NSCLC was greater than 100 µM in each case. Moreover, the TGI in the experiment with KM12 colon, in the experiment with A549 NSCLC, in the experiment with SN12C renal and with K-562 leukemia was greater than 100 µM in each case.
Regarding `CN(C)C(=S)/N=c1\ss/c(=N\S(=O)(=O)c2ccccc2)n1C`, the TGI with SF-539 CNS, in the experiment with SK-MEL-5 melanoma, in the experiment on NCI-H522 lung, in the experiment with ACHN renal, with CCRF-CEM leukemia and with HOP-92 NSCLC was greater than 100 µM in each case. For the same compound, the TGI with KM12 colon, in the experiment with A549 NSCLC, in the experiment with SN12C renal and in the experiment with K-562 leukemia was greater than 100 µM throughout.
Take `CCCCCC/C(CC(=O)CCC(=O)NCCc1ccccc1)=N\Nc1ccc([N+](=O)[O-])cc1[N+](=O)[O-]`: the TGI in the experiment on SF-539 CNS is greater than 100 µM; in the experiment with SK-MEL-5 melanoma it was greater than 100 µM; in the experiment with NCI-H522 lung, greater than 100 µM; in the experiment with ACHN renal, greater than 100 µM; in the experiment with CCRF-CEM leukemia, 60.6 µM; in the experiment on HOP-92 NSCLC it was greater than 100 µM. Further, the TGI in the experiment with KM12 colon, in the experiment with A549 NSCLC, in the experiment on SN12C renal and in the experiment with K-562 leukemia was greater than 100 µM throughout.
Regarding `Cc1ccc(C)c(NC(=O)C(=O)Nn2c(=S)[nH]c3ccccc3c2=O)c1`, the concentration for total growth inhibition (TGI) with SF-539 CNS, in the experiment on SK-MEL-5 melanoma, in the experiment on NCI-H522 lung, in the experiment with ACHN renal, in the experiment on CCRF-CEM leukemia and in the experiment with HOP-92 NSCLC was greater than 100 µM each time. In addition, the TGI in the experiment with KM12 colon, in the experiment on A549 NSCLC, with SN12C renal and in the experiment with K-562 leukemia was greater than 100 µM in each case.
